The compounds below were run against Peroxisome proliferator-activated receptor gamma (Mus musculus) (UniProt P37238) (assay: PPARgamma activity was assessed by the cell-based insulin receptor binding assay (IRBA) in mouse 3T3-L1 cells, measuring the increase in the number of insulin receptors). Settings: not given.

EC50 | SMILES
> 10000 nM | O=C(O)C[C@@H]1CCc2cc(OCCCOc3ccccc3)ccc21 [2-[(1S)-5-(3-phenoxypropoxy)-2,3-dihydro-1H-inden-1-yl]acetic acid]
312 nM | COc1cc(-c2nc(C)c(C(=O)N(C)C)s2)ccc1OCCCOc1ccc2c(c1)CC[C@H]2CC(=O)O [2-[(1S)-5-(3-{4-[5-(dimethylcarbamoyl)-4-methyl-1,3-thiazol-2-yl]-2-methoxyphenoxy}propoxy)-2,3-dihydro-1H-inden-1-yl]acetic acid]
> 10000 nM | O=C(O)C[C@@H]1CCc2cc(OCCCOc3ccc4cnoc4c3)ccc21 [2-[(1S)-5-[3-(1,2-benzoxazol-6-yloxy)propoxy]-2,3-dihydro-1H-inden-1-yl]acetic acid]
> 10000 nM | O=C(O)C[C@@H]1CCc2cc(OCCCOc3ccc4ncoc4c3)ccc21 [2-[(1S)-5-[3-(1,3-benzoxazol-6-yloxy)propoxy]-2,3-dihydro-1H-inden-1-yl]acetic acid]
> 10000 nM | O=C(O)C[C@@H]1CCc2cc(OCCCOc3ccc4cc[nH]c4c3)ccc21 [2-[(1S)-5-[3-(1H-indol-6-yloxy)propoxy]-2,3-dihydro-1H-inden-1-yl]acetic acid]
> 10000 nM | Cc1ccc(OCCCOc2ccc3c(c2)CC[C@H]3CC(=O)O)cc1C [2-[(1S)-5-[3-(3,4-dimethylphenoxy)propoxy]-2,3-dihydro-1H-inden-1-yl]acetic acid]
> 10000 nM | CCCc1c(OCCCOc2ccc3c(c2)CC[C@H]3CC(=O)O)ccc2c1ccn2C [2-[(1S)-5-{3-[(1-methyl-4-propyl-1H-indol-5-yl)oxy]propoxy}-2,3-dihydro-1H-inden-1-yl]acetic acid]

SMILES | EC50
CCCc1cc(-c2nc(C)c(C(=O)N(C)C)s2)ccc1OCCCOc1ccc2c(c1)CC[C@H]2CC(=O)O [2-[(1S)-5-(3-{4-[5-(dimethylcarbamoyl)-4-methyl-1,3-thiazol-2-yl]-2-propylphenoxy}propoxy)-2,3-dihydro-1H-inden-1-yl]acetic acid] | 20 nM

These compounds were tested against T1, Peroxisome proliferator-activated receptor alpha (Homo sapiens, UniProt Q07869) (assay: PPAR FRET Assay). Settings: 25 °C.
T1 sequence (Q07869 whole entry): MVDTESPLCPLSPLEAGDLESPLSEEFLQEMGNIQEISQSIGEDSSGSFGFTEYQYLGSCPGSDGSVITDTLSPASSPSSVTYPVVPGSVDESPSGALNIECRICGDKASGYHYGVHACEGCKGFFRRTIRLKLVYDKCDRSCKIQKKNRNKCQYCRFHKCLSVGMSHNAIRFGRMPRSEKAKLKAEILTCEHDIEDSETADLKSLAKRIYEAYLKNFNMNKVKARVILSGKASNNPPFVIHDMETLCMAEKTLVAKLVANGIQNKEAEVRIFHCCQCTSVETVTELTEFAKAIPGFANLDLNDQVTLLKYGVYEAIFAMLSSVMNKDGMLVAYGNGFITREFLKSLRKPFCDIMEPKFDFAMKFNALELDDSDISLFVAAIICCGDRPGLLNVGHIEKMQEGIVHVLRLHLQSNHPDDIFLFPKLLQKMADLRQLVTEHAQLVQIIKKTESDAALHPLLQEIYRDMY
Protocol: (§1) Activity was assessed by measuring the human PPAR ligand binding domain with the co-activator protein. Europium labeled anti-GST antibody, streptavidin-labeled APC, biotin-labeled co-activator protein, and PPAR-GST were incubated at room temperature in buffer in the presence or absence of test compound.

EC50 | SMILES
101 nM | CCCc1cc(-c2nc3c(s2)CCCO3)ccc1OCCCOc1ccc2c(c1)CC[C@H]2CC(=O)O [2-[(1S)-5-[3-(2-propyl-4-{5H,6H,7H-pyrano[2,3-d][1,3]thiazol-2-yl}phenoxy)propoxy]-2,3-dihydro-1H-inden-1-yl]acetic acid]

What follows are compounds tested against T2, Peroxisome proliferator-activated receptor delta (Homo sapiens, UniProt Q03181) (assay: PPAR FRET Assay). Settings: 25 °C.
T2 sequence (Q03181 whole entry): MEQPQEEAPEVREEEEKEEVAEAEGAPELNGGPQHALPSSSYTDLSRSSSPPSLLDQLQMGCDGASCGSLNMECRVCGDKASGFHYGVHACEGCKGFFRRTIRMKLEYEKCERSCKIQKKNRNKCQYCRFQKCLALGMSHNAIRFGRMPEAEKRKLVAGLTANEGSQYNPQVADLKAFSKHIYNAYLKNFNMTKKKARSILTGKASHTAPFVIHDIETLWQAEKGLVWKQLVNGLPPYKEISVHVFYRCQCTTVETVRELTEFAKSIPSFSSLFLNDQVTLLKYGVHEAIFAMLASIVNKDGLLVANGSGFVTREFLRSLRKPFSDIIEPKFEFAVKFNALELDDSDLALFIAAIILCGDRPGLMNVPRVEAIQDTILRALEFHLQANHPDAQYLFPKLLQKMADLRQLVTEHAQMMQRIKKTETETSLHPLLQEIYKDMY
Protocol: as §1

EC50 | SMILES
4 nM | CCCc1cc(-c2nc3c(s2)CCCO3)ccc1OCCCOc1ccc2c(c1)CC[C@H]2CC(=O)O [2-[(1S)-5-[3-(2-propyl-4-{5H,6H,7H-pyrano[2,3-d][1,3]thiazol-2-yl}phenoxy)propoxy]-2,3-dihydro-1H-inden-1-yl]acetic acid]
